Assay results reported in patent EP0017543B1, “Benzothiazole derivatives, process for their preparation and their therapeutical uses” (Albert ROLLAND S.A. Société dite, priority 1979, dated 1980).

What was measured:
[1] = system: agrégation plaquettaire provoquée in vitro par l'ADP; experiment: ADP-induced platelet aggregation in vitro in platelet-rich rat plasma; assay type: cell-based; details: plasma de rat enrichi en plaquettes
[2] = system: torsions à la phénylbenzoquinone chez la souris; experiment: Phenylbenzoquinone writhing test (analgesic activity); assay type: in vivo; details: dose de 12,5 mg/kg, 24 heures après son administration
Description: L'activité analgésique des composés de formule 1 a été mise en évidence dans le test des torsions à la phénylbenzoquinone chez la souris. Ainsi, l'acide de formule 1 (racémique) possède dans ce test une DE50 de 3 à 6 mg/kg P.O. Cette activité analgésique est prolongée dans le temps, une dose de 12,5 mg/kg de ce composé entraînant encore une analgésie de 42%, 24 heures après son administration.

Solubility in water = assay type: physicochemical
Description: Le sel de pyrrolidine de l'acide (phényl-2 benzothiazolyl-6)-2 propionique est préparé par action d'I g d'amine sur 4 g d'acide en solution dans le méthanol. Il fond à 142°C.

[3] = system: biosynthèse des prostaglandines; experiment: Protection against arachidonic acid toxicity (lethal dose) in mice; assay type: in vivo, souris

In the case of `CC(C(=O)O)c1ccc2nc(-c3ccccc3)sc2c1` (racemic), the “concentration active par rapport à l'acide acétyl salicylique” value [1] is reported as “actif à une concentration dix fois plus faible que l'acide acétyl salicylique”.
`CC(C(=O)O)c1ccc2nc(-c3ccccc3)sc2c1` (racemic) [Exemple 1, acide (phényl-2 benzothiazolyl-6)-2 propionique] gave an analgésie [2] of 42%.
With `CC(C(=O)O)c1ccc2nc(-c3ccccc3)sc2c1` (racemic) [Exemple 3, (phényl-2 benzothiazolyl-6)-2 propionate de sodium] the “solubilité dans l'eau” value (Solubility in water) was “soluble dans l'eau” and the “activité contre la toxicité de l'acide arachidonique” value ([3]; voie intraveineuse, same doses (0,5 mg/kg)) was “actifs aux mêmes doses”.
With `CC(C(=O)O)c1ccc2nc(-c3ccccc3)sc2c1` (racemic) [Exemple 4, sel de pyrrolidine de l'acide (phényl-2 benzothiazolyl-6)-2 propionique] the “solubilité dans l'eau” value (Solubility in water) was “soluble dans l'eau”.
With `CC(C(=O)O)c1ccc2nc(-c3ccccc3)sc2c1` (single isomer, unassigned) [Exemple 8a, acide (phényl-2 benzothiazolyl-6)-2 propionique] the “activité contre la toxicité de l'acide arachidonique, comparison of enantiomers and racemate” value ([3]; route not stated for the comparison) was “activité comparable à celle du racémique (exemple 1), et supérieure à celle de son homologue lévogyre”.
